Patent US20220087960A1, “Oral Pharmaceutical Immediate Release Composition” (Aardvark Therapeutics Inc., priority 2020, published 2022)
Where two headings read alike, the source gives them in different places.

Columns and labels:
male SD rats = assay: Single oral dose food intake study, 24-hour observational period (Example 6, first in vivo study); parameters: species or system rat
Method: This example compares efficacy of DA versus DB in food inhibition and body weight control. As a background, according to Avau et al., Sci. Rep. […] In our first in vivo study, 45 male SD rats (purchased from Envigo at 8-10 weeks of age) were divided into three groups (15 in each group), which were administered a single oral dose of vehicle (distilled water), 26.8 mg/kg of DB, or 23.1 mg/kg of DA respectively, with a 24-hour observational period, to compare the efficacy of DB versus DA in reducing food intake. Table 4. Mean cumulative food intake during 24-h observational period

[1] = tested on: human TAS2Rs (TAS2R 4, 8, 10, 13, 39, 43, 46, and 47); conditions: cited from earlier work
healthy volunteers = conditions: intragastric administration, cited from earlier work; for nutrient volume tolerance / satiation: 1 μmol/kg DB
rodent obesity models = conditions: cited from earlier work
Sprague Dawley rats = assay: in vivo; conditions: rat, po; for Mortality rate: both, 14 day
Method: (§1) The drugs were administered to Sprague Dawley rats with a 14-day observational period. Twenty-four Male Sprague Dawley (SD) rats and 24 female SD rats were purchased from Envigo at 8-10 weeks of age. The DA group had four dose levels (120, 360, 1000, and 2000 mg/kg, single administration by oral gavage), 3 rats per sex, 6 animals in total per dose level; and the DB group: four dose levels (120, 360, 1000, and 2000 mg/kg, single administration by oral gavage), 3 rats per sex, 6 animals in total per dose level. The estimated median lethal dose (LD50) was determined by a nonlinear regression [model: Y=100/(1+10^(LogEC50-X)), Hill slope=1.0) to calculate LD50.

[2] = Maximum tolerated dose / LD50 study, single oral gavage, 14-day observational period (Example 7); conditions: both, Sprague Dawley, rat, in vivo
Method: as §1

normal C57BL/6 mice = conditions: oral 60 μmol/kg (26.8 mg/kg); cited from earlier work
male C57BL/6N DIO mice = assay: 56-day BID treatment, food consumption and body weight in DIO mice (Example 6, second in vivo study); parameters: species or system mouse
Method: In a second in vivo study, 45 male C57BL/6N DIO mice (purchased from Envigo at 18 weeks of age, fed with high-fat diet) were divided into three groups (15 in each group), which were orally administered vehicle (distilled water), 26.8 mg/kg of DB, or 23.1 mg/kg of DA respectively, twice daily (BID), with a 56-day treatment period to compare the efficacy of DB versus DA in food intake reduction and body weight control. Briefly, once weekly, the food weight for each cage was recorded at 0 hour and then 24 hours later, permitting calculation of food consumption for that 24-hour interval. In addition, starting from Day 0, the mice were weighed three times weekly (every 2-3 days).

## CC[N+](CC)(CC(=O)Nc1c(C)cccc1C)Cc1ccccc1.O=C([O-])c1ccccc1 [DB, benzyl-[2-(2,6-dimethylanilino)-2-oxoethyl]-diethylazanium benzoate]
Male SD rats; single oral dose (DA 23.1 mg/kg, DB 26.8 mg/kg), 0-2 h, N = 15
  Mean cumulative food intake 0-2 h: 4.8 gram
Male SD rats; single oral dose (DA 23.1 mg/kg, DB 26.8 mg/kg), 0-4 h, N = 15
  Mean cumulative food intake 0-4 h: 7.7 gram
Male SD rats; single oral dose (DA 23.1 mg/kg, DB 26.8 mg/kg), 0-6 h, N = 15
  Mean cumulative food intake 0-6 h: 10.9 gram
Male SD rats; single oral dose (DA 23.1 mg/kg, DB 26.8 mg/kg), 0-8 h, N = 15
  Mean cumulative food intake 0-8 h: 13.8 gram
Male SD rats; single oral dose (DA 23.1 mg/kg, DB 26.8 mg/kg), 0-24 h, N = 15
  Mean cumulative food intake 0-24 h: 20.6 gram
Male SD rats; single oral dose, all indicated time intervals
  cumulative food intake as compared with vehicle: reduced cumulative food intake during all the indicated time intervals as compared with vehicle
[1]
  activation of human TAS2Rs: activates to varying degrees eight human TAS2Rs
Healthy volunteers; listed as Denatonium benzoate
  nutrient volume tolerance: reduced nutrient volume tolerance
  satiation: increased satiation post meal
Healthy volunteers
  nutrient volume tolerance: decreased nutrient volume tolerance
  satiation: increased satiation
  hunger ratings: decreased hunger ratings
  inter-digestive gastric motility: attenuated inter-digestive gastric motility
Rodent obesity models
  food intake: suppressed food intake
  weight gain: inhibited weight gain
Sprague Dawley rats; 120 mg/kg
  Mortality rate: 0%
Sprague Dawley rats; 360 mg/kg
  Mortality rate: 0%
Sprague Dawley rats; 1000 mg/kg
  Mortality rate: 66.7%
Sprague Dawley rats; 2000 mg/kg
  Mortality rate: 100%
Sprague Dawley rats; female, 120 mg/kg
  No. of animals died within 24 h post dosing: 0
Sprague Dawley rats; female, 360 mg/kg
  No. of animals died within 24 h post dosing: 0
Sprague Dawley rats; female, 1000 mg/kg
  No. of animals died within 24 h post dosing: 3
Sprague Dawley rats; female, 2000 mg/kg
  No. of animals died within 24 h post dosing: 3
Sprague Dawley rats; male, 120 mg/kg
  No. of animals died within 24 h post dosing: 0
Sprague Dawley rats; male, 360 mg/kg
  No. of animals died within 24 h post dosing: 0
Sprague Dawley rats; male, 1000 mg/kg
  No. of animals died within 24 h post dosing: 1
Sprague Dawley rats; male, 2000 mg/kg
  No. of animals died within 24 h post dosing: 3
[2]
  LD50 at 14 day: 784 mg/kg
  MTD at 14 day: 360 mg/kg
Normal C57BL/6 mice
  gastric emptying rate: significantly inhibited gastric emptying rate
Male C57BL/6N DIO mice; DIO mice on high-fat diet, 26.8 mg/kg DB or 23.1 mg/kg DA BID
  body weight gain as compared to vehicle treatment: less body weight gain as compared to vehicle treatment
Male C57BL/6N DIO mice; DIO mice, BID oral (DA 23.1 mg/kg, DB 26.8 mg/kg), Day 0
  Mean food consumption per animal for 24-h interval, Day 0: 2.5 gram
Male C57BL/6N DIO mice; DIO mice, BID oral (DA 23.1 mg/kg, DB 26.8 mg/kg), Day 7
  Mean food consumption per animal for 24-h interval, Day 7: 1.8 gram
Male C57BL/6N DIO mice; DIO mice, BID oral (DA 23.1 mg/kg, DB 26.8 mg/kg), Day 14
  Mean food consumption per animal for 24-h interval, Day 14: 2.6 gram
Male C57BL/6N DIO mice; DIO mice, BID oral (DA 23.1 mg/kg, DB 26.8 mg/kg), Day 21
  Mean food consumption per animal for 24-h interval, Day 21: 2.9 gram
Male C57BL/6N DIO mice; DIO mice, BID oral (DA 23.1 mg/kg, DB 26.8 mg/kg), Day 28
  Mean food consumption per animal for 24-h interval, Day 28: 2.5 gram
Male C57BL/6N DIO mice; DIO mice, BID oral (DA 23.1 mg/kg, DB 26.8 mg/kg), Day 35
  Mean food consumption per animal for 24-h interval, Day 35: 2.5 gram
Male C57BL/6N DIO mice; DIO mice, BID oral (DA 23.1 mg/kg, DB 26.8 mg/kg), Day 42
  Mean food consumption per animal for 24-h interval, Day 42: 2.0 gram
Male C57BL/6N DIO mice; DIO mice, BID oral (DA 23.1 mg/kg, DB 26.8 mg/kg), Day 49
  Mean food consumption per animal for 24-h interval, Day 49: 2.4 gram
Male C57BL/6N DIO mice; DIO mice, BID oral (DA 23.1 mg/kg, DB 26.8 mg/kg), Day 56
  Mean food consumption per animal for 24-h interval, Day 56: 2.5 gram
Male C57BL/6N DIO mice; DIO mice, BID oral (DA 23.1 mg/kg, DB 26.8 mg/kg), day 0
  Mean normalized body weight (% of baseline), study day 0: 100.0 % of baseline
Male C57BL/6N DIO mice; DIO mice, BID oral (DA 23.1 mg/kg, DB 26.8 mg/kg), day 4
  Mean normalized body weight (% of baseline), study day 4: 100.5 % of baseline
Male C57BL/6N DIO mice; DIO mice, BID oral (DA 23.1 mg/kg, DB 26.8 mg/kg), day 7
  Mean normalized body weight (% of baseline), study day 7: 99.7 % of baseline
Male C57BL/6N DIO mice; DIO mice, BID oral (DA 23.1 mg/kg, DB 26.8 mg/kg), day 9
  Mean normalized body weight (% of baseline), study day 9: 99.4 % of baseline
Male C57BL/6N DIO mice; DIO mice, BID oral (DA 23.1 mg/kg, DB 26.8 mg/kg), day 11
  Mean normalized body weight (% of baseline), study day 11: 99.0 % of baseline
Male C57BL/6N DIO mice; DIO mice, BID oral (DA 23.1 mg/kg, DB 26.8 mg/kg), day 14
  Mean normalized body weight (% of baseline), study day 14: 99.3 % of baseline
Male C57BL/6N DIO mice; DIO mice, BID oral (DA 23.1 mg/kg, DB 26.8 mg/kg), day 16
  Mean normalized body weight (% of baseline), study day 16: 98.0 % of baseline
Male C57BL/6N DIO mice; DIO mice, BID oral (DA 23.1 mg/kg, DB 26.8 mg/kg), day 18
  Mean normalized body weight (% of baseline), study day 18: 97.9 % of baseline
Male C57BL/6N DIO mice; DIO mice, BID oral (DA 23.1 mg/kg, DB 26.8 mg/kg), day 21
  Mean normalized body weight (% of baseline), study day 21: 99.5 % of baseline
Male C57BL/6N DIO mice; DIO mice, BID oral (DA 23.1 mg/kg, DB 26.8 mg/kg), day 23
  Mean normalized body weight (% of baseline), study day 23: 100.5 % of baseline
Male C57BL/6N DIO mice; DIO mice, BID oral (DA 23.1 mg/kg, DB 26.8 mg/kg), day 25
  Mean normalized body weight (% of baseline), study day 25: 100.3 % of baseline
Male C57BL/6N DIO mice; DIO mice, BID oral (DA 23.1 mg/kg, DB 26.8 mg/kg), day 28
  Mean normalized body weight (% of baseline), study day 28: 100.2 % of baseline
Male C57BL/6N DIO mice; DIO mice, BID oral (DA 23.1 mg/kg, DB 26.8 mg/kg), day 30
  Mean normalized body weight (% of baseline), study day 30: 100.5 % of baseline
Male C57BL/6N DIO mice; DIO mice, BID oral (DA 23.1 mg/kg, DB 26.8 mg/kg), day 32
  Mean normalized body weight (% of baseline), study day 32: 102.8 % of baseline
Male C57BL/6N DIO mice; DIO mice, BID oral (DA 23.1 mg/kg, DB 26.8 mg/kg), day 34
  Mean normalized body weight (% of baseline), study day 34: 103.6 % of baseline
Male C57BL/6N DIO mice; DIO mice, BID oral (DA 23.1 mg/kg, DB 26.8 mg/kg), day 36
  Mean normalized body weight (% of baseline), study day 36: 104.1 % of baseline
Male C57BL/6N DIO mice; DIO mice, BID oral (DA 23.1 mg/kg, DB 26.8 mg/kg), day 39
  Mean normalized body weight (% of baseline), study day 39: 104.7 % of baseline
Male C57BL/6N DIO mice; DIO mice, BID oral (DA 23.1 mg/kg, DB 26.8 mg/kg), day 41
  Mean normalized body weight (% of baseline), study day 41: 105.3 % of baseline
Male C57BL/6N DIO mice; DIO mice, BID oral (DA 23.1 mg/kg, DB 26.8 mg/kg), day 46
  Mean normalized body weight (% of baseline), study day 46: 106.0 % of baseline
Male C57BL/6N DIO mice; DIO mice, BID oral (DA 23.1 mg/kg, DB 26.8 mg/kg), day 49
  Mean normalized body weight (% of baseline), study day 49: 107.8 % of baseline
Male C57BL/6N DIO mice; DIO mice, BID oral (DA 23.1 mg/kg, DB 26.8 mg/kg), day 51
  Mean normalized body weight (% of baseline), study day 51: 107.8 % of baseline
Male C57BL/6N DIO mice; DIO mice, BID oral (DA 23.1 mg/kg, DB 26.8 mg/kg), day 53
  Mean normalized body weight (% of baseline), study day 53: 107.4 % of baseline
Male C57BL/6N DIO mice; DIO mice, BID oral (DA 23.1 mg/kg, DB 26.8 mg/kg), day 56
  Mean normalized body weight (% of baseline), study day 56: 108.4 % of baseline
Male C57BL/6N DIO mice; DIO mice, BID oral, 56-day treatment
  food consumption compared to vehicle-dosed mice: Lower food consumption was also seen on Days 0, 7, 28, 35, 42 and 49
